Experimental data from US9745291B2, “PRMT5 inhibitors containing a dihydro- or tetrahydroisoquinoline and uses thereof” (Epizyme, Inc., priority 2012, dated 2017).
Where two headings read alike, the source gives them in different places.

Experiments:
PRMT5/MEP50 = PRMT5/MEP50 (Homo sapiens (Human), UniProt O14744); assay: PRMT5 Biochemical Assay (PRMT5/MEP50 enzyme assay on peptide substrate, 3H-SAM Flashplate); details: PRMT5 biochemical assay; read-out: Biochemical IC50
[1] = tested on: symmetric di-methyl arginine in Z-138 cells; assay: Z-138 Methylation Assay (In Cell Western for symmetric di-methyl arginine and DNA content); format: cell-based; details: read-out: ICW EC50
Excerpt: [formula] Where top and bottom are the normally allowed to float, but may be fixed at 100 or 0 respectively in a 3-parameter fit. The Hill Coefficient normally allowed to float but may also be fixed at 1 in a 3-parameter fit. Y is the % inhibition and X is the compound concentration. Z-138 Methylation Assay
Z-138 suspension cells were purchased from ATCC (American Type Culture Collection, Manassas, Va.). RPMI/Glutamax medium, penicillin-streptomycin, heat inactivated fetal bovine serum, and D-PBS were purchased from Life Technologies, Grand Island, N.Y., USA. Odyssey blocking buffer, 800CW goat anti-rabbit IgG (H+L) antibody, and Licor Odyssey infrared scanner were purchased from Licor Biosciences, Lincoln, Nebr., USA. Symmetric di-methyl arginine antibody was purchased from EMD Millipore, Billerica, Mass., USA. 16% Paraformaldehyde was purchased from Electron Microscopy Sciences, Hatfield, Pa., USA.
Z-138 suspension cells were maintained in growth medium (RPMI 1640 supplemented with 10% v/v heat inactivated fetal bovine serum and 100 units/mL penicillin-streptomycin) and cultured at 37° C. under 5% CO2.
Cell Treatment, in Cell Western (ICW) for Detection of Symmetric Di-Methyl Arginine and DNA Content.
Z-138 cells were seeded in assay medium at a concentration of 50,000 cells per mL to a 384-well cell culture plate with 50 μL per well. Compound (100 nL) from 384 well source plates was added directly to 384 well cell plate. Plates were incubated at 37° C., 5% CO2 for 96 hours. After four days of incubation, 40 μL of cells from incubated plates were added to poly-D-lysine coated 384 well culture plates (BD Biosciences 356697). Plates were incubated at room temperature for 30 minutes then incubated at 37° C., 5% CO2 for 5 hours. After the incubation, 40 μL per well of 8% paraformaldehyde in PBS (16% paraformaldahyde was diluted to 8% in PBS) was added to each plate and incubated for 30 minutes. Plates were transferred to a Biotek 405 plate washer and washed 5 times with 100 μL per well of wash buffer (1×PBS with 0.1% Triton X-100 (v/v)). Next 30 μL per well of Odyssey blocking buffer were added to each plate and incubated 1 hour at room temperature. Blocking buffer was removed and 20 μL per well of primary antibody was added (symmetric di-methyl arginine diluted 1:100 in Odyssey buffer with 0.1% Tween 20 (v/v)) and plates were incubated overnight (16 hours) at 4° C. Plates were washed 5 times with 100 μL per well of wash buffer. Next 20 μL per well of secondary antibody was added (1:200 800CW goat anti-rabbit IgG (H+L) antibody, 1:1000 DRAQ5 (Biostatus limited) in Odyssey buffer with 0.1% Tween 20 (v/v)) and incubated for 1 hour at room temperature. The plates were washed 5 times with 100 μL per well wash buffer then 1 time with 100 μL per well of water. Plates were allowed to dry at room temperature then imaged on the Licor Odyssey machine which measures integrated intensity at 700 nm and 800 nm wavelengths. Both 700 and 800 channels were scanned.
First, the ratio for each well was determined by:
Each plate included fourteen control wells of DMSO only treatment (minimum inhibition) as well as fourteen control wells for maximum inhibition treated with 3 μM of a reference compound (Background wells). The average of the ratio values for each control type was calculated and used to determine the percent inhibition for each test well in the plate. Reference compound was serially diluted three-fold in DMSO for a total of nine test concentrations, beginning at 3 μM. Percent inhibition was determined and IC50 curves were generated using triplicate wells per concentration of compound. […]

Z-138 cell line = assay: Z-138 Proliferation Assay (Cell Titer Glo, 5 days); format: cell-based; details: Z-138 cells
Excerpt: [formula] Z-138 Proliferation Assay
Z-138 suspension cells were purchased from ATCC (American Type Culture Collection, Manassas, Va.). RPMI/Glutamax medium, penicillin-streptomycin, heat inactivated fetal bovine serum were purchased from Life Technologies, Grand Island, N.Y., USA. V-bottom polypropylene 384-well plates were purchased from Greiner Bio-One, Monroe, N.C., USA. Cell culture 384-well white opaque plates were purchased from Perkin Elmer, Waltham, Mass., USA. Cell-Titer Glo® was purchased from Promega Corporation, Madison, Wis., USA. SpectraMax M5 plate reader was purchased from Molecular Devices LLC, Sunnyvale, Calif., USA.
Z-138 suspension cells were maintained in growth medium (RPMI 1640 supplemented with 10% v/v heat inactivated fetal bovine serum and cultured at 37° C. under 5% CO2 Under assay conditions, cells were incubated in assay medium (RPMI 1640 supplemented with 10% v/v heat inactivated fetal bovine serum and 100 units/mL penicillin-streptomycin) at 37° C. under 5% CO2.
For the assessment of the effect of compounds on the proliferation of the Z-138 cell line, exponentially growing cells were plated in 384-well white opaque plates at a density of 10,000 cells/ml in a final volume of 50 μl of assay medium. A compound source plate was prepared by performing triplicate nine-point 3-fold serial dilutions in DMSO, beginning at 10 mM (final top concentration of compound in the assay was 20 μM and the DMSO was 0.2%). A 100 nL aliquot from the compound stock plate was added to its respective well in the cell plate. […] After addition of compounds, assay plates were incubated for 5 days at 37° C., 5% CO2, relative humidity >90%.
Cell viability was measured by quantitation of ATP present in the cell cultures, adding 35 μl of Cell Titer Glo® reagent to the cell plates. Luminescence was read in the SpectraMax M5 microplate reader. The concentration of compound inhibiting cell viability by 50% was determined using a 4-parametric fit of the normalized dose response curves.

[2] = Homo sapiens, Z-138, Z-138 cells

PRMT5/MEP50, sequence (O14744 other isoform, or with tags, fused parts or gaps): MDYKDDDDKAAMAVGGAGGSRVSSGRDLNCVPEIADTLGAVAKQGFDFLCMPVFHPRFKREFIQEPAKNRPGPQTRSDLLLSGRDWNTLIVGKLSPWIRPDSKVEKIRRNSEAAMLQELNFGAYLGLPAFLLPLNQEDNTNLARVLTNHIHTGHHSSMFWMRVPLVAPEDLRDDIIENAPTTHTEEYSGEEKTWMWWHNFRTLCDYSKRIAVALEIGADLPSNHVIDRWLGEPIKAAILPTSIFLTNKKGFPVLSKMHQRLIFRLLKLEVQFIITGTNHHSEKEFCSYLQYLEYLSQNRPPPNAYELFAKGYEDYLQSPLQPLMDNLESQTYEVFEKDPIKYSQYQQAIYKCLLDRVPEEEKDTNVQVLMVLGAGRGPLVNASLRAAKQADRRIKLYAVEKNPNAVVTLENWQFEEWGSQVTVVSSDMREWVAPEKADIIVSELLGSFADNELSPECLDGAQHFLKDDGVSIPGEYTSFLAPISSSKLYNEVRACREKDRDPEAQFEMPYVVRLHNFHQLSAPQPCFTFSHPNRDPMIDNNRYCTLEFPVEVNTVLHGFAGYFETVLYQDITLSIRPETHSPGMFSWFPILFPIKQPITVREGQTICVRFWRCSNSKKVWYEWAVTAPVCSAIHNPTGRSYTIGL
PRMT5/MEP50, sequence (Q9BQA1 other isoform, or with tags, fused parts or gaps partner): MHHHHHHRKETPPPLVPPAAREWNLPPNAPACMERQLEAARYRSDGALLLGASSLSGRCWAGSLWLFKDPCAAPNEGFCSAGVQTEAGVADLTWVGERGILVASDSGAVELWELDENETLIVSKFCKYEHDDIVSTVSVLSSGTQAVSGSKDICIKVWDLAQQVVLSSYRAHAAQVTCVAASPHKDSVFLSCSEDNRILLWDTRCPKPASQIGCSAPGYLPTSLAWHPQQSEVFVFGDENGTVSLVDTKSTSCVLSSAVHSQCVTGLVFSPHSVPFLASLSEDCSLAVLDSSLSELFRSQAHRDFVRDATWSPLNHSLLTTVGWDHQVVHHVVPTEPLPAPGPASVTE

Row | Compound | IC50 (PRMT5/MEP50) [nM] | EC50 [1, 2] [nM] | EC50 ([1]; Z-138 cells) [nM] | EC50 (Z-138 cell line; Homo sapiens, Z-138, 120 h) [nM] | EC50 (Z-138 cell line) [nM]
1 | CC1CN(S(=O)(=O)c2ccccc2OCC(=O)NC[C@@H](O)CN2CCc3ccccc3C2)CCN1C (stereo partly drawn) [Compound 211] | 1000 to 10000 | > 1000 |  | > 20000 | 
2 | O=C(CCc1nc2cc(F)ccc2[nH]1)NC[C@@H](O)CN1CCc2ccccc2C1 [Compound 213] | 101 to 1000 | 101 to 1000 |  | > 20000 | 
3 | CN(C)C1CN(S(=O)(=O)c2ccccc2OCC(=O)NC[C@@H](O)CN2CCc3ccccc3C2)CC1O (stereo partly drawn) [Compound 216] | 101 to 1000 | 101 to 1000 |  | > 20000 | 
4 | O=C(COc1ccccc1S(=O)(=O)N1CCNC(CO)C1)NC[C@@H](O)CN1CCc2ccccc2C1 (stereo partly drawn) [Compound 217] | 101 to 1000 | 101 to 1000 |  | > 20000 | 
5 | Cn1cnc(CCNC(=O)c2cccc(OCC(=O)NC[C@@H](O)CN3CCc4ccccc4C3)c2)c1 [Compound 218] | 101 to 1000 | > 1000 |  | > 20000 | 
6 | Cn1c(CCC(=O)NC[C@H](O)CN2CCc3ccccc3C2)nc2ccccc21 [Compound 222] | 101 to 1000 | 101 to 1000 |  | 1000 to 10000 | 
7 | O=C(COc1nc2ccccc2[nH]1)NC[C@H](O)CN1CCc2ccccc2C1 [Compound 223] | 101 to 1000 | 101 to 1000 |  | 1000 to 10000 | 
8 | O=C(CCc1cn2ccccc2n1)NC[C@H](O)CN1CCc2ccccc2C1 [Compound 229] | 101 to 1000 | 101 to 1000 |  | 10000 to 50000 | 
9 | Cn1cncc1CCNC(=O)c1cccc(OCC(=O)NC[C@@H](O)CN2CCc3ccccc3C2)c1 [Compound 231] | 101 to 1000 | > 1000 |  | > 20000 | 
10 | Cn1cnc(-c2cccc(OCC(=O)NC[C@@H](O)CN3CCc4ccccc4C3)c2)c1 [Compound 234] | 101 to 1000 | > 1000 |  | > 20000 | 
11 | O=C(COc1ccccc1[C@@H]1CCCCN1)NC[C@@H](O)CN1CCc2ccccc2C1 [Compound 236] | 101 to 1000 | > 1000 |  | 10000 to 50000 | 
12 | O=C(COc1ccccc1C1CNCC(O)C1)NC[C@@H](O)CN1CCc2ccccc2C1 (stereo partly drawn) [Compound 237] | 101 to 1000 | > 1000 |  | > 20000 | 
13 | O=C(CCc1ncc[nH]1)NC[C@H](O)CN1CCc2ccccc2C1 [Compound 240] | 101 to 1000 | 101 to 1000 |  | 10000 to 50000 | 
14 | Cn1ccnc1CCNC(=O)c1cccc(OCC(=O)NC[C@@H](O)CN2CCc3ccccc3C2)c1 [Compound 245] | 101 to 1000 | > 1000 |  | > 20000 | 
15 | CN1CCCC(c2c(CS(C)(=O)=O)cccc2OCC(=O)NC[C@@H](O)CN2CCc3ccccc3C2)C1 (stereo partly drawn) [Compound 247] | 101 to 1000 | > 1000 |  | > 20000 | 
16 | Cc1cccc2[nH]c(CCC(=O)NC[C@H](O)CN3CCc4ccccc4C3)nc12 [Compound 250] | < 100 | < 100 |  | 1000 to 10000 | 

More lines, main results first:

Row | IC50 (PRMT5/MEP50) [nM] | EC50 [1, 2] [nM] | EC50 ([1]; Z-138 cells) [nM] | Compound | EC50 (Z-138 cell line; Homo sapiens, Z-138, 120 h) [nM] | EC50 (Z-138 cell line) [nM]
17 | < 100 | < 100 |  | CN(CCN1CCCCC1)S(=O)(=O)c1ccccc1OCC(=O)NC[C@@H](O)CN1CCc2ccccc2C1 [Compound 214] | 101 to 1000 | 
18 | < 100 | > 1000 |  | NC1CN(S(=O)(=O)c2ccccc2OCC(=O)NC[C@@H](O)CN2CCc3ccccc3C2)CC1O (stereo partly drawn) [Compound 215] | > 20000 | 
19 | < 100 | < 100 |  | CN(CC1CCNC1)S(=O)(=O)c1ccccc1OCC(=O)NC[C@@H](O)CN1CCc2ccccc2C1 (stereo partly drawn) [Compound 219] |  | 101 to 1000
20 | < 100 |  | 101 to 1000 | CN(CC1CCNC1)S(=O)(=O)c1ccccc1OCC(=O)NC[C@@H](O)CN1CCc2ccccc2C1 (stereo partly drawn) [Compound 220] |  | 10000 to 50000
21 | < 100 | 101 to 1000 |  | NC1CCN(S(=O)(=O)c2ccccc2OCC(=O)NC[C@@H](O)CN2CCc3ccccc3C2)C1 (stereo partly drawn) [Compound 221] | 10000 to 50000 | 
22 | < 100 | < 100 |  | Cc1ccc2[nH]c(CCC(=O)NC[C@H](O)CN3CCc4ccccc4C3)nc2c1 [Compound 224] | 1000 to 10000 | 
23 | < 100 | < 100 |  | O=C(CCc1nc2cc(F)ccc2[nH]1)NC[C@H](O)CN1CCc2ccccc2C1 [Compound 225] | 101 to 1000 | 
24 | < 100 | < 100 |  | O=C(CCc1nc2cc(Cl)ccc2[nH]1)NC[C@H](O)CN1CCc2ccccc2C1 [Compound 226] | 101 to 1000 | 
25 | < 100 | < 100 |  | O=C(CCc1nc2c(Cl)cccc2[nH]1)NC[C@H](O)CN1CCc2ccccc2C1 [Compound 227] | 101 to 1000 | 
26 | < 100 | < 100 |  | CN(C[C@H](O)CN1CCc2ccccc2C1)C(=O)CCc1nc2ccccc2[nH]1 [Compound 228] | 101 to 1000 | 
27 | < 100 | < 100 |  | CN(CC1CNC1)S(=O)(=O)c1ccccc1OCC(=O)NC[C@@H](O)CN1CCc2ccccc2C1 [Compound 232] | 1000 to 10000 | 
28 | < 100 | < 100 |  | CN1CCC(CN(C)S(=O)(=O)c2ccccc2OCC(=O)NC[C@@H](O)CN2CCc3ccccc3C2)C1 (stereo partly drawn) [Compound 238] | 101 to 1000 | 
29 | < 100 | < 100 |  | O=C(CNc1nc2ccccc2[nH]1)NC[C@H](O)CN1CCc2ccccc2C1 [Compound 239] | 1000 to 10000 | 
30 | < 100 | < 100 |  | O=C(CCc1nc2c(F)cccc2[nH]1)NC[C@H](O)CN1CCc2ccccc2C1 [Compound 241] | 101 to 1000 | 
31 | < 100 | < 100 |  | COc1cccc2[nH]c(CCC(=O)NC[C@H](O)CN3CCc4ccccc4C3)nc12 [Compound 242] | 1000 to 10000 | 
32 | < 100 | < 100 |  | O=C(CCc1nc(-c2ccccc2)c[nH]1)NC[C@H](O)CN1CCc2ccccc2C1 [Compound 243] | 1000 to 10000 | 
33 | < 100 | > 1000 |  | COCCNCCNC(=O)c1cccc(OCC(=O)NC[C@@H](O)CN2CCc3ccccc3C2)c1 [Compound 244] | > 20000 | 
34 | < 100 | 101 to 1000 |  | CNC1CN(S(=O)(=O)c2ccccc2OCC(=O)NC[C@@H](O)CN2CCc3ccccc3C2)CC1O (stereo partly drawn) [Compound 246] | > 20000 | 
35 | < 100 | < 100 |  | COc1ccc2[nH]c(CCC(=O)NC[C@H](O)CN3CCc4ccccc4C3)nc2c1 [Compound 249] | 1000 to 10000 | 
